Reference: patent US6875760B2 (Novo Nordisk A/S, priority 1999, dated 2005)

molecular target: T1, human glucagon receptor (Homo sapiens, UniProt P47871); assay: Glucagon Binding Assay (III); details: BHK cell membranes, WGA SPA beads, 125I-glucagon; read-out: Glu Bd Assay (III) IC50
T1 construct: expressed in transfected cells; host or cells: BHK (baby hamster kidney) cells
Summary of the method: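 Non-specific binding was set with 500 nM glucagon in this SPA-type binding assay using WGA beads. The receptor source was a membrane preparation, kept on ice or at 4 °C, from BHK cells transfected with the human receptor. Scintillation counts were taken after 4 hours of shaking and 8–48 hours of settling.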

T1 sequence (P47871 26-477): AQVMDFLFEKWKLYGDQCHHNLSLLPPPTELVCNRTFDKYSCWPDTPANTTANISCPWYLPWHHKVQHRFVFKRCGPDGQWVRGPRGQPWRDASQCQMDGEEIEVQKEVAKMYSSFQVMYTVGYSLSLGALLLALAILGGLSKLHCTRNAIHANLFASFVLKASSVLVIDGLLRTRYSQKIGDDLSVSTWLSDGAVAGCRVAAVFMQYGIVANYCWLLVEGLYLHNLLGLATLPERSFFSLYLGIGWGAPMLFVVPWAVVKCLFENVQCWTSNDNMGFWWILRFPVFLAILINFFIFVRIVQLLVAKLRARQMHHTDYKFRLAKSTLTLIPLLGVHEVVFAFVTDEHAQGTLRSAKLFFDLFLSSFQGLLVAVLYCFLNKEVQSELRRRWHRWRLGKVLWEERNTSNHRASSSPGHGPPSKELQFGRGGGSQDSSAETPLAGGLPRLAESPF

SMILES	IC50 [nM]
CSc1ccc(OC(=O)N(Cc2ccc(C(=O)NCCC(=O)O)cc2)c2ccc(C3CCCCC3)cc2)cc1 [Example 418, 3-(4-{[(4-Cyclohexylphenyl)-(4-methylsulfanylphenoxycarbonyl)amino]methyl}benzoylamino)propionic acid]	472
CCN(CCC(=O)O)C(=O)c1ccc(CN(C(=O)Nc2ccc(OC(F)(F)F)cc2)C2CCC(C(C)(C)C)CC2)cc1 (stereo not shown) [Example 91, 3-({4-[1-(4-tert-Butylcyclohexyl)-3-(4-trifluoromethoxyphenyl)ureidomethyl]benzoyl}ethylamino)propionic acid]	2800
O=C(O)CCNC(=O)c1ccc(CN(C(=O)Nc2ccc3c(c2)C(=O)N(CC2CC2)C3=O)c2ccc(C3CCCCC3)cc2)cc1 [Example 642, 3-{4-[3-(N′-[Cyclopropylmethyl]phthalimid-4-yl)-1-(4-cyclohexylphenyl)ureidomethyl]benzoylamino}propionic acid]	7
CN(C)S(=O)(=O)c1cccc(NC(=O)N(Cc2ccc(C(=O)Nc3nn[nH]n3)cc2)c2ccc(C3CCCCC3)cc2)c1 [Example 275, 4-[1-(4-Cyclohexylphenyl)-3-(3-dimethylsulfamoylphenyl)ureidomethyl]-N-(2H-tetrazol-5-yl)benzamide]	101
CCCCC(CC)CN(Cc1ccc(C(=O)NCCC(=O)O)cc1)C(=O)Nc1ccc(OC(F)(F)F)cc1 (stereo not shown) [Example 96, 3-{4-[1-(2-Ethylhexyl)-3-(4-trifluoromethoxyphenyl)ureidomethyl]benzoylamino}propionic acid]	137
O=C(O)CCNC(=O)c1ccc(CN(C(=O)Nc2cc(C(F)(F)F)cc(C(F)(F)F)c2)C2CCC3(CCCCC3)CC2)cc1 [Example 614, 3-{4-[3-(3,5-Bis(trifluoromethyl)phenyl)-1-spiro[5.5]undec-3-ylureidomethyl]benzoylamino}propionic acid]	129
CC(C)(C)c1ccc(N(Cc2ccc(C(=O)Nc3nn[nH]n3)cc2)C(=O)Nc2cccc(C(F)(F)F)c2)cc1 [Example 294, 4-[1-(4-tert-Butylphenyl)-3-(3-trifluoromethylphenyl)ureidomethyl]-N-(2H-tetrazol-5-yl)benzamide]	50
CC(C)(C)C1CCC(N(Cc2ccc(C(=O)NCCC(=O)O)cc2)C(=O)NCCc2cccs2)CC1 (stereo not shown) [Example 23, 3-{4-[1-(4-tert-Butylcyclohexyl)-3-(2-thiophen-2-ylethyl)ureidomethyl]benzoylamino}propionic acid]	1800

More lines, now with the values ahead:

IC50 [nM]	SMILES
17	CC(C)(C)c1cccc(NC(=O)N(Cc2ccc(C(=O)Nc3nn[nH]n3)cc2)c2ccc(C3CCCCC3)cc2)c1 [Example 357, 4-[1-(4-Cyclohexylphenyl)-3-(3-tert-butylphenyl)ureidomethyl]-N-(2H-tetrazol-5-yl)benzamide]
4050	CCOC(=O)N1CCC(NC(=O)N(Cc2ccc(C(=O)NCCC(=O)O)cc2)[C@H]2CC[C@H](C(C)(C)C)CC2)CC1 [Example 245, 4-{3-(trans-4-tert-Butylcyclohexyl)-3-[4-(2-carboxyethylcarbamoyl)benzyl]ureido}piperidine-1-carboxylic acid ethyl ester]
456	CCc1ccc(NC(=O)N(CCc2ccc(Cl)c(Cl)c2)Cc2ccc(C(=O)NCCC(=O)O)cc2)cc1 [Example 46, 3-{4-[1-[2-(3,4-Dichlorophenyl)ethyl)-3-(4-ethylphenyl)ureidomethyl]benzoylamino}propionic acid]
1730	CCNC(=O)c1cccc(NC(=O)N(Cc2ccc(C(=O)Nc3nn[nH]n3)cc2)c2ccc(C(C)(C)C)cc2)c1 [Example 460, N-Ethyl-3-{3-(4-tert-butylphenyl)-3-[4-(2H-tetrazol-5-ylcarbamoyl)benzyl]ureido}benzamide]
1250	CC(C)c1ccc(CN(Cc2ccc(C(=O)NCCC(=O)O)cc2)C(=O)Nc2ccc(OC(F)(F)F)cc2)cc1 [Example 433, 3-{4-[1-(4-Isopropylbenzyl)-3-(4-trifluoromethoxyphenyl)ureidomethyl]benzoylamino}propionic acid]
